Data from PMC6268933 (Molecules, 2012).
Like-named read-outs stand apart in the source and are kept apart here.

Tests used:
[1] = DPPH radical scavenging activity (RSA) assay; type: biochemical; conditions: for IC50: 15 min in the dark at room temperature, 515 nm, mean ± SD (n = 3), read-out: DPPH radical scavenging activities (IC50); for average fold higher DPPH scavenging activity compared to compounds 1 to 6: positive controls vs compounds 1 to 6
Method: The antioxidant activity of all six compounds was determined by the DPPH radical scavenging method according to the previous procedure with modification. Each compound was diluted two-fold in a series of five starting from 5.00 mg/mL. The solution of DPPH in methanol (6 × 10^−5 M) was prepared daily before UV measurements. A 3 mL aliquot of this solution was mixed with 77 μL of the compound solution in a 1-cm path length microcuvette. The mixture was shaken vigorously. The mixtures were then kept in the dark for 15 min at room temperature and the decrease in absorption was measured immediately in a UV-Vis spectrophotometer at 515 nm. The blank solution containing the same amount of methanol and DPPH solution was prepared and its absorption was measured daily. The experiment was carried out in triplicate. AscA and BHT were used as positive controls. The RSA of samples, expressed as percentage inhibition of DPPH, was calculated according to the formula: Inhibition percentage (Ip) = [(AB − AA)/AB] × 100, where AB and AA are the absorbance values—checked after 15 min—of the blank sample and of the tested sample solutions, respectively.

[2] = β-carotene-linoleic acid (BCLA) assay; type: biochemical; conditions: bleaching of β-carotene, 450 nm, up to 120 min; mean ± SD (n = 3); read-out: BCLA method (IC50)
Method: This test was carried out according to the reported method of literature with modification. Approximately 4 mL of a solution of β-carotene in chloroform (1 mg/mL) were pipetted into a flask containing 40 mg of linoleic acid and 400 mg of Tween-40. The chloroform was removed using a rotary evaporator at 40 °C for 5 min, and to the residue, 100 mL of distilled water were added, slowly with vigorous agitation, to form an emulsion. A 96-well micro-titer plate was added with 50 μL of the Part 2.4.1 solution of the test compound and 200 μL of the emulsion, and the absorbance was measured at 450 nm, immediately, against a blank consisting of the emulsion without β-carotene. The plate was allowed to stand at room temperature (20–23 °C), and the absorbance measurements were conducted again at 30 min intervals up to 120 min. All tests were carried out in triplicate. Stable antioxidants of AscA and BHT were used as positive controls. The antioxidant activity (AA) of the test samples was evaluated in terms of bleaching of β-carotene using the formula; AA = [1 − (A0 − At)/(A0' − At')] × 100, where A0 and A0' are the absorbance values measured at zero time of the sample and the blank, respectively, and At and At' are the absorbance measured in the test sample and the blank, respectively, at times up to 120 min.

[3] = Cytotoxicity on Vero cells by MTT assay; type: cell-based; conditions: African green monkey (Cercopitheus aethiops)
Method: The isolated compounds were tested for in-vitro cytotoxicity using Vero cells by 3-(4,5-dimethylthiazol-2-yl)-2,5-diphenyltetrazolium bromide (MTT) assay. The Vero cell line was initiated from kidney of a normal adult African green monkey, Cercopitheus aethiops, obtained from Virology Laboratory, School of Biosciences and Biotechnology, Faculty of Science and Technology, UKM. Vero cells were maintained in DMEM, supplemented with 10% FBS and cultured at 37 °C in a humidified 5% CO2 incubator. The concentration of stock compound solution was 1.0 mg/mL prepared by dissolving 1 mg compound in 50 μL methanol and 950 μL 5% FBS-DMEM. Sonicator was used to emulsify the compounds for 40 min before the two-fold dilutions made in 5% FBS-DMEM to produce a compound solution at concentrations of 0.5, 0.25, 0125 and 0.0625 mg/mL. Briefly, a total of […] of cell suspension with different concentrations were added to each well in the 96-well micro-titer plates. As a positive control, each well from first to third wells was added with cells of 2.5 × 10^5, 1.25 × 10^5 and 0.625 × 10^5 cells/mL. For the negative control (100% cell death, LC100), […] of DMEM without cells were added to the twelfth well. Cells of 2.5 × 10^5 cells/mL were added into the fourth to eleventh wells. The plates were incubated for 48 h at 37 °C with 5% CO2 until a monolayer is formed. […] After the incubation period, MTT (20 μL, 5 mg/mL) was added into each well and the cells incubated for 2 to 4 h, until a purple precipitate was clearly visible under a microscope, the medium together with MTT (190 μL) was aspirated off from the wells, DMSO (100 μL) was added and the plate shaken for 5 min. The absorbance for each well was measured at 540 nm in a micro-titer plate reader and percentage of cell viability (CV) was calculated manually using the formula: CV = [(Abssample − Absnegative control)/(Abscell − Absnegative control)] × 100.

[4] = cited from earlier work
[5] = from Parthenocissus laetevirens, read-out: DPPH RSA antioxidant activities
[6] = from V. wilsonae, read-out: antioxidant activities towards DPPH, IC50
[7] = from V. chunganensis, read-out: DPPH RSA
[8] = Vero cells, MTT, 24 h incubation, read-out: Cytotoxic activities on Vero cell lines (LC50)

## Oc1ccc([C@H]2c3c(O)cc(O)cc3[C@H]3c4c(cc(O)cc4[C@@H]2[C@H]2c4cc(O)cc5c4[C@H](c4cc(O)cc(O)c4[C@@H]2c2ccc(O)cc2)[C@@H](c2ccc(O)cc2)O5)O[C@@H]3c2ccc(O)cc2)cc1 [Compound 6, (−)-hopeaphenol]
[1]
  IC50: 2780 ± 160 µM
[2]
  IC50: 100 ± 10 µM
[3]
  CC50 at 24 h: 161 µM

## laetevirenol D
[4]; [5]
  IC50: 128 µM

## CC(=O)/C=C/[C@@]1(O)[C@H](C)[C@H](O)[C@@H](O)CC1(C)C [wilsonol C]
[4]; [6]
  IC50: 182 µM

## (+)-amurensin G
[4]; [7]
  IC50: 138 µM

## laetevirenol E
[4]; [5]
  IC50: 158 µM

## laetevirenol C
[4]; [5]
  IC50: 111 µM

## O=C1O[C@H]([C@@H](O)CO)C(O)=C1O [AscA, ascorbic acid, reference compound]
[1]
  IC50: 680 µM
  average fold higher DPPH scavenging activity compared to compounds 1 to 6: 6 fold
[2]
  IC50: 25200 ± 1740 µM

## Oc1ccc(/C=C/c2c3c(cc4c2[C@H](c2cc(O)c(Cc5c(O)cc(O)cc5[C@@H]5c6c(O)cc7c8c6[C@H]([C@@H](c6ccc(O)cc6)c6c(O)cc(O)cc6[C@@H]8[C@@H](c6ccc(O)cc6)O7)[C@H]5c5ccc(O)cc5)c(O)c2)[C@@H](c2ccc(O)cc2)O4)O[C@H](c2ccc(O)cc2)[C@H]3c2cc(O)cc(O)c2)cc1 [chunganenol]
[4]; [7]
  IC50: 37.3 µM

## Oc1ccc([C@H]2c3c(O)cc(O)c4c3c(cc3ccc(O)cc34)[C@@H]2c2cc(O)cc(O)c2)cc1 [laetevirenol A]
[4]; [5]
  IC50: 38.4 µM

## O=C1O[C@@H]2[C@H](O)COC23O[C@@H](c2ccc(O)cc2)[C@H](c2cc(O)cc4c2[C@@H](c2cc(O)cc(O)c2)[C@H](c2ccc(O)cc2)O4)[C@@]13O (stereo partly shown) [Compound 2, laevifonol]
[1]
  IC50: 4210 ± 230 µM
[2]
  IC50: 220 ± 20 µM
[3]; [8]
  CC50 at 24 h: 597 µM

## diviniferin B
[4]; [6]
  IC50: 175 µM

## C[C@@H]1[C@H](O)[C@@H](O)CC(C)(C)[C@@]1(O)/C=C/[C@@H](C)O [wilsonol B]
[4]; [6]
  IC50: 195 µM

## laetevirenol B
[4]; [5]
  IC50: 37.3 µM

## Cc1cc(C(C)(C)C)c(O)c(C(C)(C)C)c1 [BHT, butylated hydroxytoluene, reference compound]
[1]
  IC50: 950 ± 50 µM
  average fold higher DPPH scavenging activity compared to compounds 1 to 6: 4 fold
[2]
  IC50: 90 µM

## Oc1cc(O)cc(/C=C/c2ccc(O)c(O)c2)c1 [piceatanol]
[4]; from Cyperus longus, read-out: DPPH RSA IC50
  IC50: 11 µM

## Oc1ccc([C@@H]2c3c(O)cc(O)cc3[C@@H]3c4c(cc(O)cc4[C@@H]2O)O[C@H]3c2ccc(O)cc2)cc1 (relative stereo) [Compound 1, acuminatol]
[1]
  IC50: 10060 ± 50 µM
[2]
  IC50: 180 ± 10 µM
[3]; [8]
  CC50 at 24 h: 400 µM

## O=C1C=CC23C(C1)Oc1cc(O)cc4c1C2C(c1cc(O)cc2c1C4C(c1ccc(O)cc1)O2)C(c1cc(O)cc2c1C(c1cc(O)cc(O)c1)C(c1ccc(O)cc1)O2)C3c1ccc(O)cc1 (stereo not shown) [Compound 4, shoreaketone]
[1]
  IC50: 1540 ± 100 µM
[2]
  IC50: 110 µM
[3]; [8]
  CC50 at 24 h: 830 µM

## C[C@H](O)/C=C/[C@@]1(O)[C@H](C)[C@H](O)[C@@H](O)CC1(C)C [wilsonol A]
[4]; [6]
  IC50: 104 µM

## (+)-gnetin H
[4]; [7]
  IC50: 251 µM

## Oc1ccc([C@@H]2c3c(O)cc(O)cc3[C@@H]3c4c(cc(O)c5c4[C@@H]2[C@H](c2ccc(O)cc2)[C@H]5c2cc(O)cc4c2[C@@H](c2cc(O)cc(O)c2)[C@H](c2ccc(O)cc2)O4)O[C@H]3c2ccc(O)cc2)cc1 [Compound 5, vaticanol B]
[1]
  IC50: 840 ± 20 µM
[2]
  IC50: 100 ± 10 µM
[3]; [8]
  CC50 at 24 h: 759 µM

## Oc1ccc([C@H]2Oc3cc(O)cc4c3[C@@H]2c2cc(O)cc3c2[C@@H](c2cc(O)cc5c2[C@@H]4[C@H](c2ccc(O)cc2)O5)[C@H](c2ccc(O)cc2)O3)cc1 [Compound 3, (+)-α-viniferin]
[1]
  IC50: 6290 ± 50 µM
[2]
  IC50: 180 µM
[3]; [8]
  CC50 at 24 h: 208 µM
